Measurements reported in patent US8389268B2, “Method and culture medium for enhanced detection of mycobacterium” (priority 2009, dated 2013).
Values joined by “and” are separate entries in the source; they are usually repeats but may differ in a detail not shown here. Equal entries are not always repeated. Where two headings read alike, the source gives them in different places.

Tests used:
[1] = test system: M. avium 25291; assay: Time to detection (TTD) of growth in BacT/ALERT MP culture bottles; type: cell-based, Mycobacterium avium; details: for # Positive: of 4.0 tested
[2] = test system: M. intracellulare 13950; assay: as above; type: cell-based, Mycobacterium intracellulare; details: for # Positive: of 4.0 tested
[3] = test system: M. kansasii 12478; assay: as above; type: cell-based, Mycobacterium kansasii; details: for # Positive / # Positives: of 4.0 tested
[4] = test system: M. scrofulaceum 19981; assay: as above; type: cell-based, Mycobacterium scrofulaceum
[5] = test system: MTB 25177; assay: as above; type: cell-based, Mycobacterium tuberculosis; details: for # Positive: of 4.0 tested
Protocol: For Growth Performance, […] organisms (M. tuberculosis, M. avium, and M. intracellulare) were tested. The conventional MAS formulation was used for these experiments. The new supplement with/without FA supplementation and conventional/old RF were used to rehydrate a lyophilized powder of the conventional or old MB BacT antibiotic supplement (conventional/old MAS) (bioMérieux, Inc.).
For the new supplement, the new, autoclavable BacT/ALERT® MP bottle (as described hereinabove) was used and for conventional/old RF, the conventional/old MP bottle was used. Before the inoculation of new and conventional/old MP culture bottles (bioMérieux, Inc.) with mycobacteria cultures, 0.5 ml of new supplement with/without FA or 0.5 ml of conventional/old RF were added to one set of the BacT/ALERT® MP culture bottles. The rehydrated conventional MAS (using new supplement with/without FA and conventional/old RF) was added to the second set of MP culture bottles. The growth (as TTD of growth) was compared in these bottles for Mycobacterium avium, Mycobacterium intracellulare and Mycobacterium tuberculosis cultures after inoculating with approximately 0.5×10^3 CFU/ml.
For the new MAS formulas and NS, a new, autoclaved BacT/ALERT® MP bottle (as described hereinabove) was used and for conventional/old RF, conventional/old MP bottle (bioMérieux, Inc.) was used. […] The conventional MAS (using conventional/old RF) and new MAS formulas (using NS) were added to the second set of MP culture bottles.
The mycobacteria inoculum was 0.5×10^3 CFU/ml.

[6] = test system: MTB 27294; assay: as above; type: cell-based, Mycobacterium tuberculosis; details: for # Positive: of 4.0 tested
[7] = test system: mycobacteria; type: cell-based, Mycobacterium species
[8] = test system: M. fortuitum 6841; assay: Time to detection (TTD) of growth in BacT/ALERT MP culture bottles; details: for # Positive / # Positives: of 4.0 tested
[9] = test system: contaminating respiratory flora (CRF); assay: Suppression of contaminating respiratory flora (CRF), growth or no growth in BacT/ALERT MP culture bottles; type: cell-based, gram positive or gram negative bacterial and yeast cultures; details: screen of various drugs

Compound: CC1(C)S[C@@H]2[C@H](NC(=O)[C@H](NC(=O)N3CCNC3=O)c3ccccc3)C(=O)N2[C@H]1C(=O)O [AZL, azlocillin]
- Average TTD ([1]; Table 4, Media + AZL 12): 20.1 days
- # Positive ([1]; Table 4, Media + AZL 12): 4.0
- Average TTD ([1]; Table 4, Media + AZL 24): 22.2 days
- # Positive ([1]; Table 4, Media + AZL 24): 4.0
- Average TTD ([1]; Table 4, Media + AZL 48): 21.2 days
- # Positive ([1]; Table 4, Media + AZL 48): 4.0
- Average TTD ([2]; Table 4, Media + AZL 12): 16.4 days
- # Positive ([2]; Table 4, Media + AZL 12): 4.0
- Average TTD ([2]; Table 4, Media + AZL 24): 19.8 days
- # Positive ([2]; Table 4, Media + AZL 24): 4.0
- Average TTD ([2]; Table 4, Media + AZL 48): 20.0 days
- # Positive ([2]; Table 4, Media + AZL 48): 2.0
- Average TTD ([3]; Table 4, Media + AZL 12): 18.5 days
- # Positive ([3]; Table 4, Media + AZL 12): 3.0
- Average TTD ([3]; Table 4, Media + AZL 24): 18.9 days
- # Positive ([3]; Table 4, Media + AZL 24): 4.0
- Average TTD ([3]; Table 4, Media + AZL 48): 20.5 days
- # Positive ([3]; Table 4, Media + AZL 48): 1.0
- Average TTD ([4]; Table 4, Media + AZL 12): 24.2 days
- # Positive ([4]; Table 4, Media + AZL 12, of 4.0 tested): 2.0
- Average TTD ([4]; Table 4, Media + AZL 48): 21.7 days
- # Positive ([4]; Table 4, Media + AZL 48, of 3.0 tested): 1.0
- Average TTD ([5]; Table 4, Media + AZL 12): 22.4 days
- # Positive ([5]; Table 4, Media + AZL 12): 4.0
- Average TTD ([5]; Table 4, Media + AZL 24): 23.8 days
- # Positive ([5]; Table 4, Media + AZL 24): 2.0
- Average TTD ([5]; Table 4, Media + AZL 48): 24.8 days
- # Positive ([5]; Table 4, Media + AZL 48): 2.0
- Average TTD ([6]; Table 4, Media + AZL 12): 15.4 days
- # Positive ([6]; Table 4, Media + AZL 12): 4.0
- Average TTD ([6]; Table 4, Media + AZL 24): 16.0 days
- # Positive ([6]; Table 4, Media + AZL 24): 4.0
- Average TTD ([6]; Table 4, Media + AZL 48): 15.4 days
- # Positive ([6]; Table 4, Media + AZL 48): 4.0
- effect on growth (as determined by TTD of growth) [7]: negative effect on the growth
- Average TTD ([8]; Table 4, Media + AZL 12): 4.0 days
- # Positive ([8]; Table 4, Media + AZL 12): 4.0
- Average TTD ([8]; Table 4, Media + AZL 24): 4.2 days
- # Positive ([8]; Table 4, Media + AZL 24): 4.0
- Average TTD ([8]; Table 4, Media + AZL 48): 4.1 days
- # Positive ([8]; Table 4, Media + AZL 48): 4.0

Compound: N=C(N)NCCC[C@H](N)C(=O)O [L-arginine]
- reduction in TTD [7]: did not show a reduction in TTD

Compound: O=C(O)C[C@H](O)C(=O)O [L-malate]
- reduction in TTD [7]: did not show a reduction in TTD

Compound: CN[C@H](CC(C)C)C(=O)N[C@H]1C(=O)N[C@@H](CC(N)=O)C(=O)N[C@H]2C(=O)N[C@H]3C(=O)N[C@H](C(=O)N[C@H](C(=O)O)c4cc(O)cc(O)c4-c4cc3ccc4O)[C@H](O)c3ccc(c(Cl)c3)Oc3cc2cc(c3O[C@@H]2O[C@H](CO)[C@@H](O)[C@H](O)[C@H]2O[C@H]2C[C@](C)(N)[C@H](O)[C@H](C)O2)Oc2ccc(cc2Cl)[C@H]1O [VAN, vancomycin]
- # Positives [1]: 4.0 and 3.0
- Average TTD [1]: 20.6 days and 21.2 days
- # Positives [2]: 4.0
- Average TTD [2]: 9.4 days and 9.7 days and 10.3 days
- # Positives ([3]; Table 5, Media + VAN 1.75): 4.0
- Average TTD ([3]; Table 5, Media + VAN 3.5): 21.5 days
- # Positives ([3]; Table 5, Media + VAN 3.5): 2.0
- Average TTD ([4]; Table 5, Media + VAN 1.75): 14.2 days
- # Positives ([4]; Table 5, Media + VAN 1.75, of 4.0 tested): 4.0
- Average TTD ([4]; Table 5, Media + VAN 3.5): 14.0 days
- # Positives ([4]; Table 5, Media + VAN 3.5, of 4.0 tested): 4.0
- Average TTD ([4]; Table 5, Media + VAN 7): 15.3 days
- # Positives ([4]; Table 5, Media + VAN 7, of 1.0 tested): 1.0
- # Positives [5]: 2.0
- Average TTD [5]: 23.7 days
- # Positives [6]: 4.0
- Average TTD [6]: 16.3 days and 16.0 days and 18.3 days
- effect on growth (as determined by TTD of growth) [7]: negative effect on the growth
- Average TTD ([8]; Table 5, Media + VAN 1.75): 4.7 days
- # Positives ([8]; Table 5, Media + VAN 1.75): 4.0
- Average TTD ([8]; Table 5, Media + VAN 3.5): 4.1 days
- # Positives ([8]; Table 5, Media + VAN 3.5): 4.0
- Average TTD ([8]; Table 5, Media + VAN 7): 4.8 days
- # Positives ([8]; Table 5, Media + VAN 7): 4.0

Compound: C[C@@H]1O[C@@H]1P(=O)(O)O [fosfomycin]
- ability to suppress contaminating respiratory flora (CRF) [9]: best choice for suppression of CRF

Compound: CC(O)C(=O)O (centres unmarked) [lactate]
- reduction in TTD [7]: did not show a reduction in TTD

Compound: O=C(O)CC(=O)C(=O)O [oxaloacetic acid]
- reduction in TTD [7]: did not show a reduction in TTD

Compound: O=C(O)CCC(=O)C(=O)O [α-keto glutarate, α-ketoglutarate]
- Avg. TTD [1]: 13.5 days and 13.8 days
- No. of positives [1]: 3
- Avg. TTD [2]: 9.0 days and 8.8 days
- No. of positives [2]: 3
- Avg. TTD [6]: 14.3 days and 13.9 days
- No. of positives [6]: 3
- reduction in time to detection (TTD) of growth [7]: approximate two days reduction
